Data published in patent publication US10407422B2, “Triazolopyridine inhibitors of myeloperoxidase” (priority 2015, dated 2019).

Legend:
[1] = target: T1, myeloperoxidase (MPO) (Homo sapiens (Human), UniProt P05164); assay: MPO peroxidation assay (Amplex Red assay); type: biochemical; conditions: potency range class
In short: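 Human MPO at 200 pM with 40 nM H2O2 preincubated 10 min at room temperature with inhibitor in 100 mM KPi pH 7.4. Reaction started with Amplex Red mixture (200 μM Amplex Red, 10 mM H2O2); resorufin fluorescence (Ex 535, Em 590 nm) read kinetically for 15 min. IC50 fitted from slopes over 180-540 s.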

[2] = target: T1, myeloperoxidase (MPO); assay: MPO chlorination assay (APF assay); type: biochemical; conditions: potency range class
In short: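 Human MPO (200 pM) preincubated 10 min at room temperature with inhibitor and 120 mM NaCl in 100 mM KPi pH 7.4. Reaction started with APF plus 10 μM H2O2, and hypochlorite-generated fluorescein read kinetically (ex 485/em 535 nm) for 3 min. IC50 from linear-phase slopes fitted to a four-parameter equation.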

T1 sequence (P05164 49-745): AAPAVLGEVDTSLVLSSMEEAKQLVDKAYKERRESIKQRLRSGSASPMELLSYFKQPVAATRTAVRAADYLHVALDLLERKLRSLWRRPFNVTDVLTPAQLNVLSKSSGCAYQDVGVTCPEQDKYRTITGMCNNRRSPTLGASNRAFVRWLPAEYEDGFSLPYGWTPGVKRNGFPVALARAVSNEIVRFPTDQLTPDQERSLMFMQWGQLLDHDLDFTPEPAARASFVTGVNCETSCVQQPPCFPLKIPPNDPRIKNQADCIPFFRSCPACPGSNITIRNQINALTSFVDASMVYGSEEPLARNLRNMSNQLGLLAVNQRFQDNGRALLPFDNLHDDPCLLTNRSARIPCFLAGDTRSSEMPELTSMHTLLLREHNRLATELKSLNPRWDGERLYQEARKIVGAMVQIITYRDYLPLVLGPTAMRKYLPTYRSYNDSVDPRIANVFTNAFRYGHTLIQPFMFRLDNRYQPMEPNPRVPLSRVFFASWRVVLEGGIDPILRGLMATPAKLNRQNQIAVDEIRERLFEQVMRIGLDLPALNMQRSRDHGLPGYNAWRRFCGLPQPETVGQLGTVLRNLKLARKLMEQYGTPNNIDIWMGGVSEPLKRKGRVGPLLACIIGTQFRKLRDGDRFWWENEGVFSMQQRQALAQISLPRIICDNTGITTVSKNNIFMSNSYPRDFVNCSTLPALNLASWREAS

Row | Compound | IC50 [1] [µM] | IC50 [2] [µM]
1 | CC1NCCc2cc(Cn3cc(Cc4cc(N)nc5[nH]nnc45)cn3)ccc21 (centres unmarked) [Example 181, 7-({1-[(1-Methyl-1,2,3,4-tetrahydroisoquinolin-6-yl)methyl]-1H-pyrazol-4-yl}methyl)-3H-[1,2,3]triazolo[4,5-b]pyridin-5-amine] | 0.001 to 0.1 | 0.001 to 0.1
2 | Nc1cc(Cc2cnn(C3CCNC3)c2)c2nn[nH]c2n1 (centres unmarked) [Example 66, 7-((1-(Pyrrolidin-3-yl)-1H-pyrazol-4-yl)methyl)-3H-[1,2,3]triazolo[4,5-b]pyridin-5-amine] | 0.101 to 0.999 | 0.101 to 0.999
3 | Nc1cc(Cc2cnn(Cc3ccccc3Oc3ccccc3)c2)c2nn[nH]c2n1 [Example 264, 7-({1-[(2-Phenoxyphenyl)methyl]-1H-pyrazol-4-yl}methyl)-3H-[1,2,3]triazolo[4,5-b]pyridin-5-amine] | 0.001 to 0.1 | 0.101 to 0.999
4 | Nc1cc(Cc2cnn(Cc3ccc(Cl)cc3Cl)c2)c2nn[nH]c2n1 [Example 117, 7-((1-(2,4-Dichlorobenzyl)-1H-pyrazol-4-yl)methyl)-3H-[1,2,3]triazolo[4,5-b]pyridin-5-amine] | 0.001 to 0.1 | 0.101 to 0.999
5 | Nc1cc(Cn2cc(-c3ccccc3)nn2)c2nn[nH]c2n1 [Example 162, 7-[(4-Phenyl-1H-1,2,3-triazol-1-yl)methyl]-3H-[1,2,3]triazolo[4,5-b]pyridin-5-amine] | 0.101 to 0.999 | 0.101 to 0.999
6 | CC(C)(C)OC(=O)N1CCc2cc(Cn3cc(Cc4cc(N)nc5[nH]nnc45)cn3)ccc2C1 [Example 129, tert-Butyl 6-((4-((5-amino-3H-[1,2,3]triazolo[4,5-b]pyridin-7-yl)methyl)-1H-pyrazol-1-yl)methyl)-3,4-dihydroisoquinoline-2(1H)-carboxylate] | 0.101 to 0.999 | 1 to 10
7 | COc1ccc(Cn2cc(Cc3cc(N)nc4[nH]nnc34)cn2)cc1 [Example 141, 7-({1-[(4-Methoxyphenyl)methyl]-1H-pyrazol-4-yl}methyl)-3H-[1,2,3]triazolo[4,5-b]pyridin-5-amine] | 0.001 to 0.1 | 0.001 to 0.1
8 | Nc1cc(Cc2cnn(Cc3ccc(C(=O)NCc4ccncc4)cc3)c2)c2nn[nH]c2n1 [Example 86, 4-{[4-({5-Amino-3H-[1,2,3]triazolo[4,5-b]pyridin-7-yl}methyl)-1H-pyrazol-1-yl]methyl}-N-(pyridin-4-ylmethyl)benzamide] | 0.001 to 0.1 | 0.101 to 0.999
9 | Nc1cc(Cc2cnn(Cc3ccc(OC(F)F)cc3)c2)c2nn[nH]c2n1 [Example 104, 7-((1-(4-(Difluoromethoxy)benzyl)-1H-pyrazol-4-yl)methyl)-3H-[1,2,3]triazolo[4,5-b]pyridin-5-amine] | 0.001 to 0.1 | 0.101 to 0.999
10 | CN(C)CCOc1ccc2cc(Cn3cc(Cc4cc(N)nc5[nH]nnc45)cn3)ccc2c1 [Example 69, 7-((1-((6-(2-(Dimethylamino)ethoxy)naphthalen-2-yl)methyl)-1H-pyrazol-4-yl)methyl)-3H-[1,2,3]triazolo[4,5-b]pyridin-5-amine] | 0.101 to 0.999 | 0.001 to 0.1
11 | Nc1cc(Cc2cnn(Cc3cccc(C4CCNC4)c3)c2)c2nn[nH]c2n1 (stereo in doubt) [Example 191, 7-{[1-({3-[(3S)-Pyrrolidin-3-yl]phenyl}yl]methyl}-3H-[1,2,3]triazolo[4,5-b]pyridin-5-amine] | 0.001 to 0.1 | 0.001 to 0.1
12 | Nc1cc(Cc2cnn(Cc3ccc4cnccc4c3)c2)c2nn[nH]c2n1 [Example 127, 7-((1-(Isoquinolin-6-ylmethyl)-1H-pyrazol-4-yl)methyl)-3H-[1,2,3]triazolo[4,5-b]pyridin-5-amine] | 0.101 to 0.999 | 0.101 to 0.999
13 | Nc1cc(Cc2cnn(-c3cccc(COc4ccccc4)c3)c2)c2nn[nH]c2n1 [Example 36, 7-((1-(3-(Phenoxymethyl)phenyl)-1H-pyrazol-4-yl)methyl)-3H-[1,2,3]triazolo[4,5-b]pyridin-5-amine] | 0.001 to 0.1 | 0.101 to 0.999
14 | CC(C)(C)c1cccc(Cn2cc(Cc3cc(N)nc4[nH]nnc34)cn2)c1 [Example 134, 7-({1-[(3-tert-Butylphenyl)methyl]-1H-pyrazol-4-yl}methyl)-3H-[1,2,3]triazolo[4,5-b]pyridin-5-amine] | 0.001 to 0.1 | 0.001 to 0.1
15 | CCCC1C[C@@H](c2cccc(Cn3cc(Cc4cc(N)nc5[nH]nnc45)cn3)c2)CN1 (stereo partly drawn) [Example 204, 7-{[1-({3-[(3S)-5-propylpyrrolidin-3-yl]phenyl}methyl)-1H-pyrazol-4-yl]methyl}-3H-[1,2,3]triazolo[4,5-b]pyridin-5-amine] | 0.001 to 0.1 | 0.001 to 0.1
16 | Nc1cc(Cc2cnn(Cc3ccc4c(c3)CNC4)c2)c2nn[nH]c2n1 [Example 176, 7-((1-(Isoindolin-5-ylmethyl)-1H-pyrazol-4-yl)methyl)-3H-[1,2,3]triazolo[4,5-b]pyridin-5-amine] | 0.001 to 0.1 | 0.001 to 0.1

Row | Compound | IC50 [1] [µM] | IC50 [2] [µM]
17 | Nc1cc(Cc2cnn(Cc3cccc(N4CCNC(C(F)(F)F)C4)c3)c2)c2nn[nH]c2n1 (centres unmarked) [Example 222, 7-{[1-({3-[3-(Trifluoromethyl)piperazin-1-yl]phenyl}methyl)-1H-pyrazol-4-yl]methyl}-3H-[1,2,3]triazolo[4,5-b]pyridin-5-amine] | 0.101 to 0.999 | 0.101 to 0.999
18 | CN1CC[C@@H](Oc2cccc(Cn3cc(Cc4cc(N)nc5[nH]nnc45)cn3)c2)C1 [Example 241, 7-({1-[(3-{[(3R)-1-Methylpyrrolidin-3-yl]oxy}phenyl)methyl]-1H-pyrazol-4-yl}methyl)-3H-[1,2,3]triazolo[4,5-b]pyridin-5-amine] | 0.001 to 0.1 | 0.101 to 0.999
19 | Nc1cc(Cc2cnn(Cc3ccc4cc[nH]c(=O)c4c3)c2)c2nn[nH]c2n1 [Example 175, 7-((4-((5-Amino-3H-[1,2,3]triazolo[4,5-b]pyridin-7-yl)methyl)-1H-pyrazol-1-yl)methyl)isoquinolin-1(2H)-one] | 0.001 to 0.1 | 0.101 to 0.999
20 | Nc1cc(Cc2cn(Cc3cccc(C4CCNCC4)c3)nc2C(F)(F)F)c2nn[nH]c2n1 [Example 284, 7-((1-(3-(Piperidin-4-yl)benzyl)-3-(trifluoromethyl)-1H-pyrazol-4-yl)methyl)-3H-[1,2,3]triazolo[4,5-b]pyridin-5-amine] | 0.101 to 0.999 | 0.101 to 0.999
21 | Nc1cc(Cc2cnn(Cc3ccc4c(c3)OCCO4)c2)c2nn[nH]c2n1 [Example 151, 7-{[1-(2,3-Dihydro-1,4-benzodioxin-6-ylmethyl)-1H-pyrazol-4-yl]methyl}-3H-[1,2,3]triazolo[4,5-b]pyridin-5-amine] | 0.001 to 0.1 | 0.101 to 0.999
22 | Nc1cc(Cc2cn(Cc3ccccc3)nc2C(F)(F)F)c2nn[nH]c2n1 [Example 283, 7-{[1-Benzyl-3-(trifluoromethyl)-1H-pyrazol-4-yl]methyl}-3H-[1,2,3]triazolo[4,5-b]pyridin-5-amine] | 1 to 10 | 0.101 to 0.999
23 | Cc1c(Cc2cc(N)nc3[nH]nnc23)cnn1-c1ccc(F)cc1 [Example 2, 7-((1-(4-Fluorophenyl)-5-methyl-1H-pyrazol-4-yl)methyl)-3H-triazolo[4,5-b]pyridin-5-amine] | 0.101 to 0.999 | 0.101 to 0.999
24 | Nc1cc(Cn2nnc3cccc(Cl)c32)c2nn[nH]c2n1 [Example 165, 7-[(7-Chloro-1H-1,2,3-benzotriazol-1-yl)methyl]-3H-[1,2,3]triazolo[4,5-b]pyridin-5-amine] | 0.101 to 0.999 | 0.101 to 0.999
25 | Nc1cc(Cc2cnn(Cc3ccc(C(=O)NCc4cncnc4)cc3)c2)c2nn[nH]c2n1 [Example 93, 4-{[4-({5-Amino-3H-[1,2,3]triazolo[4,5-b]pyridin-7-yl}methyl)-1H-pyrazol-1-yl]methyl}-N-(pyrimidin-5-ylmethyl)benzamide] | 0.001 to 0.1 | 0.101 to 0.999
26 | Nc1cc(Cc2cnn(Cc3ccc(C(=O)N4CCOCC4)cc3)c2)c2nn[nH]c2n1 [Example 96, 7-[(1-{[4-(Morpholine-4-carbonyl)phenyl]methyl}-1H-pyrazol-4-yl)methyl]-3H-[1,2,3]triazolo[4,5-b]pyridin-5-amine] | 0.001 to 0.1 | 0.101 to 0.999
27 | NC(=O)CNC(=O)c1ccc(Cn2cc(Cc3cc(N)nc4[nH]nnc34)cn2)cc1 [Example 90, 2-[(4-{[4-({5-Amino-3H-[1,2,3]triazolo[4,5-b]pyridin-7-yl}methyl)-1H-pyrazol-1-yl]methyl}phenyl)formamido]acetamide] | 0.001 to 0.1 | 0.101 to 0.999
28 | Nc1cc(Cn2nnc3ccc(Cl)cc32)c2nn[nH]c2n1 [Example 167, 7-[(6-Chloro-1H-1,2,3-benzotriazol-1-yl)methyl]-3H-[1,2,3]triazolo[4,5-b]pyridin-5-amine] | 0.101 to 0.999 | 0.101 to 0.999
29 | Nc1cc(Cc2cnn(Cc3cccc(C4CCNCC4(F)F)c3)c2)c2nn[nH]c2n1 (centres unmarked) [Example 214, 7-[(1-{[3-(3,3-Difluoropiperidin-4-yl)phenyl]methyl}-1H-pyrazol-4-yl)methyl]-3H-[1,2,3]triazolo[4,5-b]pyridin-5-amine] | 0.001 to 0.1 | 0.101 to 0.999
30 | Nc1cc(Cc2cnn(Cc3cccc(CN4CCNCC4)c3)c2)c2nn[nH]c2n1 [Example 182, 7-[(1-{[3-(Piperazin-1-ylmethyl)phenyl]methyl}-1H-pyrazol-4-yl)methyl]-3H-[1,2,3]triazolo[4,5-b]pyridin-5-amine] | 0.001 to 0.1 | 0.101 to 0.999
31 | Nc1cc(Cc2cnn(Cc3ccc(C(=O)NCc4ccn[nH]4)cc3)c2)c2nn[nH]c2n1 [Example 78, 4-{[4-({5-Amino-3H-[1,2,3]triazolo[4,5-b]pyridin-7-yl}methyl)-1H-pyrazol-1-yl]methyl}-N-(1H-pyrazol-5-ylmethyl)benzamide] | 0.001 to 0.1 | 0.101 to 0.999
